Measurements published in patent US4209588A, “Process for producing new antitumor anthracycline antibiotics” (Zaidan Hojin Biseibutsu Kagaku Kenkyu Kai, priority 1976, dated 1980).
≈ marks a conversion by molar mass, not a printed value.

Columns and labels:
[1] = Acute toxicity, single intraperitoneal injection; conditions: mouse, in vivo, ip; single i.p. injection, dd mice; read-out: LD50, intraperitoneal administration
P388 leukemia = experiment: Inhibition of growth of P388 leukemia in mice; format: in vivo
[2] = tested on: solid and ascitic-type mammalian malignant tumors; experiment: Inhibitory action against solid and ascitic-type mammalian malignant tumors; format: in vivo, mammals; conditions: solid and ascitic-type mammalian tumors; in words
L1210 cells = experiment: Growth inhibition of cultured L1210 cells; conditions: Mus musculus, L1210, read-out: % Inhibition, Growth (on Day 2)
Staph. aureus FDA 209P = experiment: Minimum inhibitory concentration, broth dilution method; conditions: Staphylococcus aureus, FDA209P
Staph. aureus Smith = experiment: as above; conditions: Staphylococcus aureus
Bac. subtilis ATCC 6633 = experiment: as above; conditions: Bacillus subtilis, ATCC6633
Bac. cereus ATCC 9634 = experiment: as above; conditions: Bacillus cereus, ATCC9634
[3] = tested on: Bac. megaterium NRRL B-938; experiment: as above; conditions: Priestia megaterium, NRRLB938
Sar. lutea ATCC 9341 = experiment: as above; conditions: Micrococcus luteus, ATCC9341
Mic. flavus = experiment: as above; conditions: Micrococcus flavus
Corv. bovis 1810 = experiment: as above
[4] = tested on: Ps. fluoroescens NIHJB-254; experiment: as above
Pr. morganii = experiment: as above; conditions: Morganella morganii
[5] = tested on: Mycobact. smegmatis ATCC 607; experiment: as above
Can. albicans IAM 4905 = experiment: as above; conditions: Candida albicans, IAM4905
Can. tropicalis IAM 4942 = experiment: as above; conditions: Candida tropicalis, IAM4942
[6] = P388 leukemia in mice, in words

Row | Structure (SMILES) | LD50 [1] | inhibiting the growth of P388 leukemia (P388 leukemia; [6]) | inhibitory action against malignant tumors [2] | inhibition at 0.1 µg/mL (L1210 cells) | MIC (Staph. aureus FDA 209P) | MIC (Staph. aureus Smith) | MIC (Bac. subtilis ATCC 6633) | MIC (Bac. cereus ATCC 9634) | MIC [3] | MIC (Sar. lutea ATCC 9341) | MIC (Mic. flavus) | MIC (Corv. bovis 1810) | MIC [4] | MIC (Pr. morganii) | MIC [5] | MIC (Can. albicans IAM 4905) | MIC (Can. tropicalis IAM 4942) | inhibiting the growth of P388 leukemia (P388 leukemia; mouse, in vivo)
1 | CC[C@@]1(O)C[C@H](O[C@H]2C[C@H](N(C)C)[C@H](O[C@H]3C[C@H](O)[C@H](O)[C@H](C)O3)[C@H](C)O2)c2c(cc3c(c2O)C(=O)c2c(O)cccc2C3=O)[C@H]1C(=O)OC [MA 144-S1, 2-deoxy-L-fucosyl-L-rhodosaminyl-aklavinone] | 24.4 mg/kg | effective in inhibiting the growth of malignant tumors | marked inhibitory action | 86% | 6.25 µg/mL (≈ 8.93 µM) | 3.1 µg/mL (≈ 4.43 µM) | 3.1 µg/mL (≈ 4.43 µM) | 1.56 µg/mL (≈ 2.23 µM) | 3.1 µg/mL (≈ 4.43 µM) | 1.56 µg/mL (≈ 2.23 µM) | 1.56 µg/mL (≈ 2.23 µM) | 0.78 µg/mL (≈ 1.11 µM) | > 100 µg/mL | > 100 µg/mL | > 100 µg/mL | > 100 µg/mL | > 100 µg/mL | 
2 | CC[C@@]1(O)C[C@H](O[C@H]2C[C@H](N(C)C)[C@H](O[C@H]3C[C@H](O)[C@H](O)[C@H](C)O3)[C@H](C)O2)c2c(cc3c(c2O)C(=O)c2c(O)ccc(O)c2C3=O)[C@H]1C(=O)OC [MA 144-S2] | 12.5 mg/kg | effective in inhibiting the growth of malignant tumors |  | 88.1% | 6.25 µg/mL (≈ 8.73 µM) | 0.78 µg/mL (≈ 1.09 µM) | 3.1 µg/mL (≈ 4.33 µM) | 0.78 µg/mL (≈ 1.09 µM) | 3.1 µg/mL (≈ 4.33 µM) | 1.56 µg/mL (≈ 2.18 µM) | 0.78 µg/mL (≈ 1.09 µM) | 0.78 µg/mL (≈ 1.09 µM) | > 100 µg/mL | > 100 µg/mL | > 100 µg/mL | > 100 µg/mL | > 100 µg/mL | 
3 | CC[C@@]1(O)C[C@H](O[C@H]2C[C@H](N(C)C)[C@H](O[C@H]3C[C@H](O)[C@H](O[C@H]4C[C@H](O)[C@H](O)[C@H](C)O4)[C@H](C)O3)[C@H](C)O2)c2c(cc3c(c2O)C(=O)c2c(O)cccc2C3=O)[C@H]1C(=O)OC [MA 144-U1] | 30.2 mg/kg | effective in inhibiting the growth of malignant tumors | marked inhibitory action | 78.5% | 6.25 µg/mL (≈ 7.53 µM) | 3.1 µg/mL (≈ 3.74 µM) | 3.1 µg/mL (≈ 3.74 µM) | 1.56 µg/mL (≈ 1.88 µM) | 3.1 µg/mL (≈ 3.74 µM) | 1.56 µg/mL (≈ 1.88 µM) | 1.56 µg/mL (≈ 1.88 µM) | 6.25 µg/mL (≈ 7.53 µM) | > 100 µg/mL | > 100 µg/mL | > 100 µg/mL | > 100 µg/mL | > 100 µg/mL | 
4 | CC[C@@]1(O)C[C@H](O[C@H]2C[C@H](N(C)C)[C@H](O[C@H]3C[C@H](O)[C@H](O[C@H]4C[C@H](O)[C@H](O)[C@H](C)O4)[C@H](C)O3)[C@H](C)O2)c2c(cc3c(c2O)C(=O)c2c(O)ccc(O)c2C3=O)[C@H]1C(=O)OC [MA 144-U2] | 14.5 mg/kg |  |  | 80.5% | 3.1 µg/mL (≈ 3.66 µM) | 0.78 µg/mL (≈ 0.922 µM) | 3.1 µg/mL (≈ 3.66 µM) | 1.56 µg/mL (≈ 1.84 µM) | 1.56 µg/mL (≈ 1.84 µM) | 1.56 µg/mL (≈ 1.84 µM) | 0.78 µg/mL (≈ 0.922 µM) | 6.25 µg/mL (≈ 7.39 µM) | > 100 µg/mL | > 100 µg/mL | > 100 µg/mL | > 100 µg/mL | > 100 µg/mL | effective in inhibiting the growth of malignant tumors
5 | CC[C@@]1(O)C[C@H](O[C@H]2C[C@H](N(C)C)[C@H](O[C@H]3C[C@H](O)[C@H](O[C@H]4C=CC(=O)[C@H](C)O4)[C@H](C)O3)[C@H](C)O2)c2c(cc3c(c2O)C(=O)c2c(O)cccc2C3=O)[C@H]1C(=O)OC [MA 144-Y] | 40 to 50 mg/kg | effective in inhibiting the growth of malignant tumors | marked inhibitory action | 90.2% | 0.4 µg/mL (≈ 0.494 µM) | 0.2 µg/mL (≈ 0.247 µM) | 0.2 µg/mL (≈ 0.247 µM) | 0.1 µg/mL (≈ 0.123 µM) | 0.2 µg/mL (≈ 0.247 µM) | 0.2 µg/mL (≈ 0.247 µM) | 0.1 µg/mL (≈ 0.123 µM) | 0.2 µg/mL (≈ 0.247 µM) | > 100 µg/mL | > 100 µg/mL | 3.1 µg/mL (≈ 3.83 µM) | > 100 µg/mL | > 100 µg/mL | 
